Assay results published in ChEMBL document CHEMBL6074701, “Pyridazine Compounds as NLRP3 Inhibitors for Treating Parkinson's Disease or Frontotemporal Dementia” (ACS Med Chem Lett, 2024).

Test: Inhibition of NLRP3 inflammasome activation in human THP-1 cells assessed as reduction in LPS induced IL-1beta level preincubated with LPS for 3 hrs followed by compound addition and measured after 2 hrs in presence of nigericin by HTRF analysis
Type: cell-based

IC50 [nM]	Structure (SMILES)
< 0.3	CCN1CC[C@H]2CCN(c3ccc(-c4ccc(C(F)(F)F)cc4O)nn3)[C@H]2C1
< 0.3	CCc1cc(C)cc(O)c1-c1ccc(N2CC[C@@H]3CCN(C)C[C@@H]32)nn1

Continued, compound first:

Structure (SMILES)	IC50 [nM]
CN1CC[C@H]2CCN(c3cc(C(F)F)c(-c4ccc(Cl)cc4O)nn3)[C@H]2C1	< 0.3
CCN1CC[C@H]2CCN(c3cc(C)c(-c4ccc(C)cc4O)nn3)[C@H]2C1	< 0.3
CCN1CC[C@@H]2CCN(c3cc(C)c(-c4ccc(C)cc4O)nn3)[C@@H]2C1	< 0.3
Cc1cc(N2CCO[C@H]3CCN(C)C[C@H]32)nnc1-c1ccc(C(F)(F)F)cc1O	< 0.3
